Read-outs that look alike come from different tables or passages of the source.
Columns and labels:
[1] = target: truncated human beta-secretase (residues 1-458, His6-tagged at the C-terminus) (Homo sapiens (Human), UniProt P56817); assay: BACE enzyme assay (fluorescence quench assay, Example 434A); type: biochemical
[2] = target: H4 neuroglioma cell line stably expressing APP with the KM-NL Swedish mutation (H4-APPsw); soluble Amyloid Beta 1-40 (Aβ 1-40) (Homo sapiens (Human), UniProt P56817); assay: BACE cell assay: soluble Aβ 1-40 in culture media of H4-APPsw cells (AlphaLISA/ELISA); type: cell-based; conditions: in vitro cell activity; H4-APPsw cells treated overnight, secreted Aβ 1-40 in culture media
Procedure: H4 neuroglioma cell line that stably expresses Amyloid Precursor Protein (APP) containing the KM-NL Swedish mutation (H4-APPsw) was generated. For the assay, cells are treated overnight in the presence of inhibitor and the culture media are subjected to ELISA analysis of soluble Amyloid Beta 1-40 (Aβ 1-40).
Generation and Maintenance of H4-APPsw Cell Line
H4 neuroglioma cell line was cultured in DMEM with 10% FBS and 1% penicillin/streptomycin (Culture Medium) at 37° C., 5% CO2. […] 24 hrs after transfection, the cells were replaced into three new plates (150 mm) in fresh Culture Medium with 250 ug/mL Zeocin. […] The levels of APPsw expression were analyzed by immunoblotting and the production of Aβ 1-40 was detected by ELISA of culture supernatants. The selected clones are maintained in Culture Medium with 250 μg/mL Zeocin and routinely split in 3-4 days to maintain 20-80% confluence.
Final Assay Conditions (96-Well Plate)
Split H4-APPsw cells in Culture Medium and culture overnight such that cells will be ˜80% confluent next morning.
Create Compound Dilution Plate.
After determining the desired final concentration of compound to be tested, create a 500× dilution plate. Add DMSO, but not inhibitor, to each well of Column 1. […] Add compounds of interest at 500× desired final concentration to wells A3-A10. […] Dilute contents of Row A 1:3 in Row B, then continue through Rows C-H.
Add 4 μL 5 mM control compound to Media Plate wells A1-D1 for determination of full inhibition.
With a multichannel pipettor, mix each well of Media Plate several times to insure homogeneity. […] Next, place Medium Plate and Cell Plate in the incubator.
Trypsinize and count H4-APPsw cells. Dilute cells 6×10^5 cells/mL in Culture Medium and remove Cell Plate from incubator. Vortex cells to homogeneity, then using a multichannel repeating pipettor, add 100 μL cell suspension to Cell Plate, adding cells from Row H to Row A. Place Cell Plate in incubator.
Change media in Cell Plate.
After 5 h, check Cell Plate by microscope to insure cells are attached. In culture hood, remove media from Cell Plate using multichannel repeating pipettor. Add 100 μl Culture Medium to each well. Remove Media Plate from incubator and mix with pipettor as previous. Add 100 μl from each well of Media Plate to corresponding well in Cell Plate. Place Cell Plate in incubator overnight.
Perform ELISA to determine levels of secreted Aβ 1-40.
After 16 h incubation, spin Cell Plate for 8 min at 1200 rpm. The primary reading of Aβ 1-40 levels is done using PerkinElmer AlphaLISA technology. Follow the manufacturer's protocol for performing AlphaLISA in a white ½ area Optiwell plate using Row 12 for peptide standard (1:2 dilutions, starting at 15 ng/ml). Data are acquired using PerkinElmer Fusion-Alpha FP-HT, Alpha protocol (Count Time 0.6s, Count Time Ratio 30%:70%).
Export data from Fusion using Columnar Report format into a separate file for each plate. Upload data into Activity Base using RIA-DOSE-RESPONSE protocol (Version 1). Data from at least eight doses were fitted to a four parameter logistical model using XLfit software to determine potency.

[3] = footnote a: protocols described in Example 434A, read-out: IC50

H4 neuroglioma cell line stably expressing APP with the KM-NL Swedish mutation (H4-APPsw); soluble Amyloid Beta 1-40 (Aβ 1-40), sequence (P56817 46-501 limits assumed, change not shown): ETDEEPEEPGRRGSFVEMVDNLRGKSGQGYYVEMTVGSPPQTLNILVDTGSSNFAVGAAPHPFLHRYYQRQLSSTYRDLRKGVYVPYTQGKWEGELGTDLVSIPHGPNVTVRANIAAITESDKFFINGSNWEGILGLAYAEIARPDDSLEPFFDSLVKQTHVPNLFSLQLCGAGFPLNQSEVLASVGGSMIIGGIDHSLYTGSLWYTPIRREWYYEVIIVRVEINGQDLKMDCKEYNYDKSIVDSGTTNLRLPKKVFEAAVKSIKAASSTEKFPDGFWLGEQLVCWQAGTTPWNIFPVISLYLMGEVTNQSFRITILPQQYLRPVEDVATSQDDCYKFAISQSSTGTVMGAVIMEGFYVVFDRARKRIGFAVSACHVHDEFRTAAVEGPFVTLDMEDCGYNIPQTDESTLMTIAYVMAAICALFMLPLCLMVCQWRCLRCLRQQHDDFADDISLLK
truncated human beta-secretase (residues 1-458, His6-tagged at the C-terminus), sequence (P56817 22-458): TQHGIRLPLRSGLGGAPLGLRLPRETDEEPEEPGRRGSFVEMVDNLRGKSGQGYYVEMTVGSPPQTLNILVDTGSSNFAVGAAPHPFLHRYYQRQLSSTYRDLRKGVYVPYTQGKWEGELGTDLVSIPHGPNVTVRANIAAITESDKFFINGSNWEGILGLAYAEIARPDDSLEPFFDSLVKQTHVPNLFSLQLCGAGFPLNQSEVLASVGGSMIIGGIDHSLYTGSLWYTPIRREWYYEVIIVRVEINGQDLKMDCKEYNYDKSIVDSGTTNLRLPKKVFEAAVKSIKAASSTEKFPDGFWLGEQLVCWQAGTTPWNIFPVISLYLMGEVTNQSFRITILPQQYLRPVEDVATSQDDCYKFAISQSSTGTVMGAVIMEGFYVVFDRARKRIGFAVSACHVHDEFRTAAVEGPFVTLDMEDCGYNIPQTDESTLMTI

| SMILES | IC50 [1, 3] | other results |
| --- | --- | --- |
| CN1OC2(N=C1N)c1cc(-c3cccc(C#N)c3)ccc1CC21CCc2cnncc2CC1 (stereo not shown) [Compound 456] | 877 nM |  |
| COC1CCC2(CC1)Cc1ccc(CCC3CC3)cc1C21N=C(N)N(C)O1 (stereo not shown) [Compound 117] | 17.4 nM |  |
| CCN1C(=O)C2(N=C1N)c1cc(C#CC3CC3)ccc1CC21CCC(OC)CC1 (stereo not shown) [Compound 138] | 15.6 nM |  |
| COC1CCC2(CC1)Cc1ccc(C#CC3CC3)cc1[C@]21N=C(N)N(C)C1=O (stereo partly shown) [Compound 478] | 2.2 nM |  |
| COC1CCC2(CC1)Cc1ccc(-c3cccnc3)cc1C21CC(=O)N(C)C(N)=N1 (stereo not drawn) [Compound 59, 2″-amino-1′″-methyl-6-(pyridin-3-yl)-1″H-spiro[spiro[2,3-dihydro-indene-2,1′-(trans-4-methoxycyclohexane)]-1,4′-pyrimidin]-6″(5″H)-one] |  | IC50 ([1]; read-out: IC50): 1550 nM; IC50 [2]: < 500 nM |
| CN1OC2(N=C1N)c1cc(-c3cccc(C#N)c3)ccc1CC21C=CC(c2ccccc2)C1 (stereo not shown) [Compound 53] |  | IC50 [2]: < 50000 nM |
| Cc1ccc2c(c1)C1(N=C(N)N(C)O1)C1(CCc3ccccc3CC1)C2 (stereo not shown) [Compound 104] | 255 nM |  |
| COC1CCC2(CC1)Cc1ccc(OCC3CC3)cc1C21N=C(N)N(C)O1 (stereo not shown) [Compound 110] | 14.6 nM |  |
| CN1OC2(N=C1N)c1cc(-c3ccnnc3)ccc1CC21CCc2ccccc2CC1 (stereo not shown) [Compound 122] | 42.5 nM |  |
| CN1OC2(N=C1N)c1cc(-c3cccc(C(F)(F)F)c3)ccc1CC21CCc2ccccc2CC1 (stereo not shown) [Compound 39] |  | IC50 ([1]; read-out: IC50): 158 nM; IC50 [2]: < 10000 nM |
| CN1OC2(N=C1N)c1cc(Cl)ccc1CC21CCc2ccccc2CC1 (stereo not shown) [Compound 30] | 61.6 nM | IC50 [2]: < 5000 nM |
| COC1CCC2(CC1)Cc1ccc(C#CC3CC3)cc1C21N=C(N)N(C)C1=O (stereo not shown) [Compound 76] | 2.1 nM |  |
| COC1CCC2(CC1)Cc1ccc(C#CC3CC3)cc1C21N=C(N)NC1=O (stereo not shown) [Compound 264] | 29.2 nM |  |
| Cc1onc2c1CC1(CC2)Cc2ccc(C#CC3CC3)cc2C12N=C(N)N(C)C2=O (stereo not shown) [Compound 467] | 2.8 nM |  |
| COC1CCC2(CC1)Cc1ccc(C#CC3CC3)cc1C21N=C(N)N(Cc2ccccc2)C1=O (stereo not shown) [Compound 142] | 2 nM |  |
| CN1C(=O)C2(N=C1N)c1cc(Br)ccc1CC21CCc2ccccc2CC1 (stereo not shown) [Compound 56] |  | IC50 [2]: < 5000 nM |
| CN1C(=O)C2(N=C1N)c1cc(-c3cc(F)cc(Cl)c3)ccc1CC21CCc2ccccc2CC1 (stereo not shown) [Compound 26] |  | IC50 [2]: < 5000 nM |
| CN1C(=O)C2(N=C1N)c1cc(C#CC3CC3)ccc1CC21CCC(O)CC1 (stereo not shown) [Compound 150] | 3 nM |  |
| COC1CCC2(CC1)Cc1ccc(C3=CC(O)CC3)cc1C21N=C(N)N(C)C1=O (stereo not shown) [Compound 476] | 33.1 nM |  |
| CN1OC2(N=C1N)c1cc(-c3cccnn3)ccc1CC21CCc2ccccc2CC1 (stereo not shown) [Compound 121] |  | IC50 ([1]; read-out: IC50): 56.2 nM |

| SMILES | IC50 [1, 3] | other results |
| --- | --- | --- |
| CN1C(=O)C2(N=C1N)c1cc(C#CC3CC3)ccc1CC21CCC(O)CC1 (stereo not shown) [Compound 151] | 207 nM |  |
| COC1CCC2(CC1)Oc1ccc(-c3cccc(C#N)c3)cc1C21N=C(N)N(C)O1 (stereo not shown) [Compound 68] | 1780 nM |  |
| CCOC1CCC2(CC1)Cc1ccc(-c3cccc(C#N)c3)cc1C21N=C(N)N(C)O1 (stereo not shown) [Compound 82] | 432 nM |  |
| COC1CCC2(CC1)Cc1ccc(-c3ccnnc3)cc1C21N=C(N)N(C)O1 (stereo not shown) [Compound 108] | 156 nM |  |
| CN1OC2(N=C1N)c1ccccc1CC21CCc2ccccc2CC1 (stereo not shown) [Compound 35] |  | IC50 [2]: < 1000 nM |
| COC1CCC2(CC1)Cc1ccc(C#CC3CCCC3)cc1C21N=C(N)N(C)O1 (stereo not shown) [Compound 114] | 9.7 nM |  |
| COC1CCC2(CC1)Cc1ccc(-c3cnccn3)cc1C21N=C(N)N(C)O1 (stereo not shown) [Compound 109] | 23.6 nM |  |
| CN1OC2(N=C1N)c1cc(Br)ccc1OC21CCc2ccccc2CC1 (stereo not shown) [Compound 67] | 138 nM |  |
| Cc1onc2c1CC1(CC2)Cc2ccc(C#CC3CC3)cc2C12N=C(N)N(C)O2 (stereo not shown) [Compound 468] | 16.7 nM |  |
| CN1C(=O)C2(N=C1N)c1cc(-c3cccc(C#N)c3)ccc1CC21CCc2ccccc2CC1 (stereo not shown) [Compound 29] |  | IC50 [2]: < 500 nM |
| CN1OC2(N=C1N)c1cc(-c3cccc(C#N)c3)ccc1CCC21CCc2ccccc2CC1 (stereo not shown) [Compound 63] | 5050 nM |  |
| CO[C@H]1CC[C@]2(CC1)Cc1c(F)cccc1C21N=C(N)N(C)C1=O (stereo partly shown) [Compound 249] | 493 nM |  |
| COC1CCC2(CC1)Cc1ccc(Br)cc1C21N=C(N)N(C)O1 (stereo not shown) [Compound 95] | 137 nM |  |
| COC1CCC2(CC1)Cc1ccc(C#CC3CC3)cc1[C@@]21N=C(N)N(C)C1=O (stereo partly shown) [Compound 477] | 694 nM |  |
| CN1OC2(N=C1N)c1cc(C#CC3CC3)ccc1CC21CCC(OC(F)F)CC1 (stereo not shown) [Compound 99] |  | IC50 [1]: 2.4 nM |
| COC1CCC2(CC1)Cc1ccc(C#CC(F)(F)F)cc1C21N=C(N)N(C)O1 (stereo not shown) [Compound 115] | 3.7 nM |  |
| CO[C@H]1CC[C@@]2(CC1)Cc1ccc(-c3cccc(C#N)c3)cc1C21CC(=O)N(C)C(N)=N1 (stereo partly shown) [Compound 65] | 50000 nM |  |
| CCOC1CCC2(CC1)Cc1ccc(C#CC3CC3)cc1C21N=C(N)N(C)O1 (stereo not shown) [Compound 24] | 21 nM |  |
| CN1OC2(N=C1N)c1cc(C#CC3CC3)ccc1CC21CCc2ccccc2CC1 (stereo not shown) [Compound 105] | 8.4 nM |  |

Second part, led by results:

| IC50 [1, 3] | SMILES | other results |
| --- | --- | --- |
| 161 nM | CC1=C(C)CC2(CC1)Cc1ccc(-c3cccc(C#N)c3)cc1C21N=C(N)N(C)O1 (stereo not shown) [Compound 41] | IC50 [2]: < 5000 nM |
| 295 nM | CN1OC2(N=C1N)c1cc(-c3cccc(C#N)c3)ccc1CC21C=CC(c2ccccc2)C1 (stereo not shown) [Compound 47] | IC50 [2]: < 10000 nM |
| 26.2 nM | COC1CCC2(CC1)Cc1ccc(-c3cccc(C#N)c3)cc1C21N=C(N)N(C)O1 (stereo not shown) [Compound 25] | IC50 [2]: < 100 nM |
| 293 nM | CN1OC2(N=C1N)c1cc(-c3cccc(C#N)c3)ccc1CC21CCCc2ccccc2C1 (stereo not shown) [Compound 46] | IC50 [2]: < 10000 nM |
| 3880 nM | CN1OC2(N=C1N)c1cc(-c3cccc(C#N)c3)ccc1CC21CCC(NCC(F)(F)F)CC1 (stereo not shown) [Compound 97] |  |
| 76.7 nM | COC1CCC2(CC1)Cc1ccc(-c3cncs3)cc1C21N=C(N)N(C)O1 (stereo not shown) [Compound 116] |  |
| 4110 nM | CO[C@H]1CC2(Cc3ccc(-c4cccc(C#N)c4)cc3C23N=C(N)N(C)O3)C[C@H]1OC (stereo partly shown) [Compound 62] |  |
| 24.6 nM | COC1CCC2(CC1)Cc1ccc(C#CC(C)(C)C)cc1C21N=C(N)N(C)O1 (stereo not shown) [Compound 113] |  |
| 74.1 nM | COC1CCC2(CC1)Cc1ccc(-c3cc(F)ccc3C)cc1C21N=C(N)N(C)O1 (stereo not shown) [Compound 32] |  |
| 4700 nM | CN1OC2(CC3(CCOCC3)c3ccc(-c4cccc(C#N)c4)cc32)N=C1N (stereo not shown) [Compound 69, 3-(spiro[spiro[2,3-dihydro-indene-3,1′-(4-oxacyclohexane)]-1,5′-(3-amino-2-methyl-2H-[1,2,4]oxadiazole)]-6-yl)benzonitrile] |  |
| 466 nM | CN1OC2(N=C1N)c1cc(-c3cccc(C#N)c3)ccc1CC21CCOCC1 (stereo not shown) [Compound 51, 3-(spiro[spiro[2,3-dihydro-indene-2,1′-(4-oxacyclohexane)]-1,5′-(3-amino-2-methyl-2H-[1,2,4]oxadiazole)]-6-yl)benzonitrile] |  |
| 3320 nM | CN1OC2(N=C1N)c1cc(-c3cccc(C#N)c3)ccc1CC21CCC(NCC(F)(F)F)CC1 (stereo not shown) [Compound 98] |  |
| 196 nM | COc1cncc(-c2ccc3c(c2)C2(N=C(N)N(C)O2)C2(CCC(OC)CC2)C3)n1 (stereo not shown) [Compound 111] |  |
| 58.6 nM | Cc1onc2c1CC1(CC2)Cc2ccc(-c3cccnc3)cc2C12N=C(N)N(C)O2 (stereo not shown) [Compound 451] |  |
| 80.4 nM | COC1CCC2(CC1)Cc1ccc(C#Cc3ccccc3)cc1C21N=C(N)N(C)O1 (stereo not shown) [Compound 112] |  |
| 3260 nM | CN1OC2(N=C1N)c1cc(-c3cccc(C#N)c3)ccc1CC21Cc2cccc3cccc(c23)C1 (stereo not shown) [Compound 61] |  |
| 4.7 nM | CN1OC2(N=C1N)c1cc(-c3cccc(C#N)c3)ccc1CC21CCC(OC(F)F)CC1 (stereo not shown) [Compound 100] |  |
| 126 nM | COC1CCC2(CC1)Cc1ccc(-c3ccc4cc[nH]c4c3)cc1C21N=C(N)N(C)O1 (stereo not shown) [Compound 37] |  |
